Biological target: T1, KRAS^G12C::SOS1 (Homo sapiens, UniProt Q07889)
T1 sequence (Q07889 1-1333): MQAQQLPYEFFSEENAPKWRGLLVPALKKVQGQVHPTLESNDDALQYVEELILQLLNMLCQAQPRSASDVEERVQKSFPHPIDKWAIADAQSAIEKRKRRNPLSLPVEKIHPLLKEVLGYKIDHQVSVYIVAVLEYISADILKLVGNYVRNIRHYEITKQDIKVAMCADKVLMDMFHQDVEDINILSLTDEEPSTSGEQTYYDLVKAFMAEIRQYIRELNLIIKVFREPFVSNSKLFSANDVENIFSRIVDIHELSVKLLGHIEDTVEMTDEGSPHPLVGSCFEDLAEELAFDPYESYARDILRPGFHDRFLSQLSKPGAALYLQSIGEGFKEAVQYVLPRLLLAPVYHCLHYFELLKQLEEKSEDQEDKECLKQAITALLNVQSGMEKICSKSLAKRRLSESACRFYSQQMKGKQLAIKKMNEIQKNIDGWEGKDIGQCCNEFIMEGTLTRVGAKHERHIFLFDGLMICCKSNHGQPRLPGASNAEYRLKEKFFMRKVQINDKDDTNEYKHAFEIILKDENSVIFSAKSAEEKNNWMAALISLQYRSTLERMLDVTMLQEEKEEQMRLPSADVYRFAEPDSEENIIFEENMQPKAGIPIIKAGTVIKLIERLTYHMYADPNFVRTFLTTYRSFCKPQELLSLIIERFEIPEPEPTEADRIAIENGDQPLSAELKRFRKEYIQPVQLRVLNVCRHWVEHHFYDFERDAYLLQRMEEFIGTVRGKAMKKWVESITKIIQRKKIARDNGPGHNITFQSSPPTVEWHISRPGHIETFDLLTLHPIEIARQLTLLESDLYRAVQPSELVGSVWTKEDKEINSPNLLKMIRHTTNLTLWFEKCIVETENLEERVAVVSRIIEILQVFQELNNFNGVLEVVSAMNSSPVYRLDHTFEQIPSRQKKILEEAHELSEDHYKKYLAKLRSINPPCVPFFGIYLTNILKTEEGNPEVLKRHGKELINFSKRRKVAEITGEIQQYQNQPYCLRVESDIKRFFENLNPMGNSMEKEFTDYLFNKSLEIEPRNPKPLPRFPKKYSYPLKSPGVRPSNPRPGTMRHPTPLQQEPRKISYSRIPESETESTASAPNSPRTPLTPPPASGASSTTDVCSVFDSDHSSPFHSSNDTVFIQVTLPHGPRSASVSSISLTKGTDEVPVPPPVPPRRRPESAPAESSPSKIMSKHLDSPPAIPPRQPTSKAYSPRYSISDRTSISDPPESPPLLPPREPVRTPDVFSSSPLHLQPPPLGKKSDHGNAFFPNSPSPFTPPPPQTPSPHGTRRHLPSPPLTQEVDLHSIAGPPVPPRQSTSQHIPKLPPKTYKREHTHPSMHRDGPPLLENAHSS
Assay: KRAS G12C::SOS1 protein-protein interaction (PPI) inhibition assay (HTRF binding kit)
Method: Protein-protein interaction between SOS1 and KRAS^G12C was detected using KRAS G12C/SOS1 binding kit from CISBIO (64KRASG12PEH, CISBIO, FRANCE) according to the manufacturer's assay method. Briefly, the maximum concentration of an inhibitor sample was set to be 3 µM, and the inhibitor sample was diluted 7 times by 1/3, and samples having a total of 8 concentrations were prepared. In HTRF (Homogeneous Time-Resolved Fluorescence) exclusive 96-well low-volume white plate (66PL96005, CISBIO, FRANCE), 2 µL of an inhibitor sample prepared for each concentration, 5 µL of a mixed solution of Tag1-labeled KRAS^G12C protein and GTP diluted with the dilution solution provided by the manufacturer, and 5 µL of Tag2 labeled SOS1 protein were mixed, and added with 8 µL of a diluted solution where anti-Tag1 KRAS^G12C XL665 (HTRF acceptor) labeled antibody and anti-Tag2 SOS1 Terbium cryptate (HTRF donor) labeled antibody were mixed in an equal ratio and incubated at room temperature for 2 h.

IC50, < 1000 nM:
COCCn1nc(C(=O)N[C@H](C)c2cc(N)cc(C(F)(F)F)c2)ccc1=O [Example 222, N-[(1R)-1-[3-amino-5-(trifluoromethyl)phenyl]ethyl]-1-(2-methoxyethyl)-6-oxo-pyridazine-3-carboxamide]
C[C@@H](NC(=O)c1ccc(=O)n(-c2ccc(OC(F)F)cc2)n1)c1cccc(C(F)(F)CO)c1F [Example 195, N-[(1R)-1-[3-(1,1-difluoro-2-hydroxy-ethyl)-2-fluoro-phenyl]ethyl]-1-[4-(difluoromethoxy)phenyl]-6-oxo-pyridazine-3-carboxamide]
C[C@@H](NC(=O)c1ccc(=O)n(-c2cnn(C)c2)n1)c1cc(N)cc(C(F)(F)F)c1 [Example 200, N-[(1R)-1-[3-amino-5-(trifluoromethyl)phenyl]ethyl]-1-(1-methylpyrazol-4-yl)-6-oxo-pyridazine-3-carboxamide]
C[C@@H](NC(=O)c1ccc(=O)n(-c2cccc(C(=O)N(C)C)c2F)n1)c1cc(N)cc(C(F)(F)F)c1 [Example 354, N-[(1R)-1-[3-amino-5-(trifluoromethyl)phenyl]ethyl]-1-[3-(dimethylcarbamoyl)-2-fluoro-phenyl]-6-oxo-pyridazine-3-carboxamide]
CNCc1ccc(F)cc1-c1ccc([C@@H](C)NC(=O)c2ccc(=O)n(-c3ccccc3F)c2)s1 [Example 287, N-[(1R)-1-[5-[5-fluoro-2-(methylaminomethyl)phenyl]-2-thienyl]ethyl]-1-(2-fluorophenyl)-6-oxo-pyridine-3-carboxamide]
C[C@@H](NC(=O)c1ccc(=O)n(Cc2ccccn2)n1)c1cc(N)cc(C(F)(F)F)c1 [Example 225, N-[(1R)-1-[3-amino-5-(trifluoromethyl)phenyl]ethyl]-6-oxo-1-(2-pyridylmethyl)pyridazine-3-carboxamide]
C[C@@H](NC(=O)c1nn(-c2ccccc2F)c(=O)c2cc[nH]c12)c1cccc(C(F)(F)CO)c1F [Example 314, N-[(1R)-1-[3-(1,1-difluoro-2-hydroxy-ethyl)-2-fluoro-phenyl]ethyl]-5-(2-fluorophenyl)-4-oxo-1H-pyrrolo[2,3-d]pyridazine-7-carboxamide]
C[C@@H](NC(=O)c1ccc(=O)n(-c2ccc3cnn(C)c3c2F)n1)c1cc(N)cc(C(F)(F)F)c1 [Example 240, N-[(1R)-1-[3-amino-5-(trifluoromethyl)phenyl]ethyl]-1-(7-fluoro-1-methyl-1H-indazol-6-yl)-6-oxo-1,6-dihydropyridazine-3-carboxamide]
C[C@@H](NC(=O)c1ccc(=O)n(-c2cccc(C(=O)N(C)C)c2)c1)c1cc(N)cc(C(F)(F)F)c1 [Example 166, N-[(1R)-1-[3-amino-5-(trifluoromethyl)phenyl]ethyl]-1-[3-(dimethylcarbamoyl)phenyl]-6-oxo-pyridine-3-carboxamide]
COc1cccc(-n2cc(C(=O)N[C@H](C)c3cccc(C(F)(F)CO)c3F)ccc2=O)c1F [Example 186, N-[(1R)-1-[3-(1,1-difluoro-2-hydroxy-ethyl)-2-fluoro-phenyl]ethyl]-1-(2-fluoro-3-methoxyphenyl)-6-oxo-pyridine-3-carboxamide]
C[C@@H](NC(=O)c1ccc(=O)n(-c2cccnc2F)n1)c1ccc(-c2cc(F)ccc2CCN)s1 [Example 414, N-[(1R)-1-[5-[2-(2-aminoethyl)-5-fluorophenyl]-2-thienyl]ethyl]-1-(2-fluoro-3-pyridyl)-6-oxopyridazine-3-carboxamide]
CNCC(F)(F)c1cccc([C@@H](C)NC(=O)c2ccc(=O)n(-c3ccccc3F)n2)c1F [Example 256, N-[(1R)-1-[3-[1,1-difluoro-2-(methylamino)ethyl]-2-fluorophenyl]ethyl]-1-(2-fluorophenyl)-6-oxo-pyridazine-3-carboxamide]
COCC(F)(F)c1cccc([C@@H](C)NC(=O)c2ccc(=O)n(-c3cccc(-c4cnnn4C)c3)n2)c1F [Example 397]

— EP4667458A1 (Kanaph Therapeutics Inc., priority 2023, dated 2024)
